Reference: article PMC8849072, “Sudapyridine (WX-081), a Novel Compound against Mycobacterium tuberculosis” (Microbiology Spectrum, 2022)
In brackets after ≈: the same amount, converted by molar mass.

Legend:
[1] = Pharmacokinetic study in mice; format: in vivo, BALB/c mice; conditions: for half-life: plasma; for half-life / At 96 h lung/plasma: lung / At 96 h lung/plasma: plasma: Mice; for At 96 h lung/plasma: lung: lung exposure at 96 h (first number of the pair); for At 96 h lung/plasma: plasma: plasma exposure at 96 h (second number of the pair)
Experimental: (§1) The BALB/c mice, rats, and beagle dogs were used in the PK study and fasted overnight before dosing. Animal doses were administered in two ways. […] Plasma samples were collected from three animals at each time point. Plasma concentrations were determined by liquid chromatography-tandem mass spectrometry (LC-MS/MS). The bioanalytical method by LC-MS/MS for pharmacokinetic (PK) studies in animal and toxicokinetic (TK) in tox studies have been validated. The total area under the concentration-time curve (AUC0-inf), the elimination half-time (t1/2), the peak concentration (Cmax), and the time to reach peak concentration (Tmax) of samples were determined directly from the experimental data using WinNonlin V6.2.1.

[2] = Preliminary in vivo toxicity study in mice
Experimental: Before the in vivo activity test, a preliminary in vivo toxicity study was conducted. All mice tolerated WX-081 at the administered doses. No adverse events were found.

[3] = test system: M. tuberculosis H37Rv; assay: MIC by microplate alamarBlue assay (MABA); format: cell-based, Mycobacterium tuberculosis; conditions: Mycobacterium tuberculosis, H37RV
[4] = Pharmacokinetic study in rats; format: in vivo, rat; conditions: for At 96 h lung/plasma: lung / At 96 h lung/plasma: plasma / half-life: Rat; for At 96 h lung/plasma: lung: lung exposure at 96 h (first number of the pair); for At 96 h lung/plasma: plasma: plasma exposure at 96 h (second number of the pair); for half-life: plasma
Experimental: as §1

[5] = target: T1, human ether-á-go-go-related (hERG) ion channel (Homo sapiens, UniProt Q12809); assay: hERG manual patch-clamp assay in hERG-CHO cell; format: cell-based; conditions: parent compound
T1 construct: expressed in transfected cells; host or cells: hERG-CHO cell (CHO cells expressing hERG)
Experimental: A human ether-á-go-go-related (hERG) ion channel in vitro assay was performed in Shanghai Institute of Materia Medica, Shanghai, for the evaluation of cardiac liability testing. The assay was a manual patch-clamp method using electrophysiology in an hERG-CHO cell.

[6] = test system: M. tuberculosis H37Rv; format: in vivo, BALB/c mice; conditions: acute model
[7] = test system: M. tuberculosis susceptible strain 14286; assay: MIC by microplate alamarBlue assay (MABA); format: cell-based, Mycobacterium tuberculosis; conditions: Mycobacterium tuberculosis
[8] = 14-day repeated oral dose toxicity and toxicokinetic head-to-head study in beagle dogs; format: in vivo, beagle dog
[9] = Pharmacokinetic study in beagle dogs; format: in vivo; conditions: dog; for AUC(0-inf): AUC0-inf; for half-life: plasma
Experimental: The BALB/c mice, rats, and beagle dogs were used in the PK study and fasted overnight before dosing. Animal doses were administered in two ways. One is oral administration, configured to form a 6.25 mg/kg WX-081, with 0.5% carboxymethylcellulose (CMC), the other is the WX-081 with an intravenous injection of 1.0 mg/kg (formulated in 40% hydroxypropyl-β-cyclodextrin and 50 mM citrate buffer at pH 3). Plasma samples were collected from three animals at each time point. Plasma concentrations were determined by liquid chromatography-tandem mass spectrometry (LC-MS/MS). The bioanalytical method by LC-MS/MS for pharmacokinetic (PK) studies in animal and toxicokinetic (TK) in tox studies have been validated. The total area under the concentration-time curve (AUC0-inf), the elimination half-time (t1/2), the peak concentration (Cmax), and the time to reach peak concentration (Tmax) of samples were determined directly from the experimental data using WinNonlin V6.2.1.

[10] = test system: M. tuberculosis H37Rv and two clinical isolates (14619, 14242); assay: Time-kill curve analysis; format: cell-based, Mycobacterium tuberculosis; conditions: up to 14 days culture
[11] = test system: M. tuberculosis susceptible strain 14242; assay: MBC determination (CFU-based); conditions: 7 days incubation, 3 log10 CFU decrease
[12] = test system: M. tuberculosis susceptible strain 14242; assay: MIC by microplate alamarBlue assay (MABA); format: cell-based, Mycobacterium tuberculosis; conditions: Mycobacterium tuberculosis
[13] = test system: M. tuberculosis susceptible strain 14480; assay: MIC by microplate alamarBlue assay (MABA); format: cell-based, Mycobacterium tuberculosis; conditions: Mycobacterium tuberculosis
[14] = test system: M. tuberculosis H37Rv; assay: MBC determination (CFU-based); conditions: 7 days incubation, 3 log10 CFU decrease
[15] = test system: M. tuberculosis H37Rv; format: in vivo, BALB/c mice
[16] = test system: M. tuberculosis susceptible strain 14241; assay: MIC by microplate alamarBlue assay (MABA); format: cell-based, Mycobacterium tuberculosis; conditions: Mycobacterium tuberculosis
[17] = test system: M. tuberculosis susceptible strain 14280; assay: MIC by microplate alamarBlue assay (MABA); format: cell-based, Mycobacterium tuberculosis; conditions: Mycobacterium tuberculosis
[18] = BALB/c, mouse, in vivo, iv, 1 mg/kg
[19] = BALB/c, mouse, in vivo, po, 6.25 mg/kg
[20] = beagle dogs, 200 mg/kg oral, 14 days

T1 sequence (Q12809 whole entry): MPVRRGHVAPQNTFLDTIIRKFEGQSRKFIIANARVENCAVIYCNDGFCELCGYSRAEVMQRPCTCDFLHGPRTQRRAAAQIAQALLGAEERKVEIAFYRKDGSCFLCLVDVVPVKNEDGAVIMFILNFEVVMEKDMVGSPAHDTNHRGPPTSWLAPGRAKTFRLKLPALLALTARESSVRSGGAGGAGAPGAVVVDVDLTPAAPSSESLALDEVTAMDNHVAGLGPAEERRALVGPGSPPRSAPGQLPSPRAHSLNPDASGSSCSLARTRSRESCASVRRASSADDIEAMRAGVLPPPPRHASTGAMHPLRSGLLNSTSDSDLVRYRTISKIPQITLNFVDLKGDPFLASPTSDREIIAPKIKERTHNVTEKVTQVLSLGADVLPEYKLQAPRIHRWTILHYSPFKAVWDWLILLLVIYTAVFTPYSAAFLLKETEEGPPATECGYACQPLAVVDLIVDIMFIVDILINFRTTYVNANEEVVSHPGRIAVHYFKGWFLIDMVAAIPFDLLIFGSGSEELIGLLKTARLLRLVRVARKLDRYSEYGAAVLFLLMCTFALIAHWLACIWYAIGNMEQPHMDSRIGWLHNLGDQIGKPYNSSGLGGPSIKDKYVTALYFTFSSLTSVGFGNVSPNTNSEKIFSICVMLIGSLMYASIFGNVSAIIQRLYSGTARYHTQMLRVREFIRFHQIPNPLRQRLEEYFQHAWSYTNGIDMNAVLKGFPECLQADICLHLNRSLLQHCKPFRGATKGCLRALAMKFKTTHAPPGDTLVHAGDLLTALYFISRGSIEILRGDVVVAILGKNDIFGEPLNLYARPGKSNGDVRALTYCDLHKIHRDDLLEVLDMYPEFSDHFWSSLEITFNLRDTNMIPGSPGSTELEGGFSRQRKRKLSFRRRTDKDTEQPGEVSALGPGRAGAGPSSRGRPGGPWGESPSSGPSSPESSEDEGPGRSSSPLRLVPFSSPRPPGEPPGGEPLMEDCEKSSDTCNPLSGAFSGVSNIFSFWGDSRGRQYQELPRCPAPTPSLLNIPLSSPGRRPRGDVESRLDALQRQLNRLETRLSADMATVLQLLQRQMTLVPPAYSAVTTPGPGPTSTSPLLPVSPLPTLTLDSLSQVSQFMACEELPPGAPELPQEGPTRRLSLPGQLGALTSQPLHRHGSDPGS

## COc1ncc(-c2ccc(Cl)cc2)cc1[C@@H](c1ccccc1)[C@@](O)(CCN(C)C)c1cccc2ccccc12 [WX-081, sudapyridine]
[1]; [18]
  AUC(0-inf): 4800 ng·h/mL
  AUC(0-t): 3990 ng·h/mL
  Vd: 10.4 L/kg
  clearance: 3.59 mL/min/kg
[1]; [19]
  AUC(0-inf): 11900 ng·h/mL
  AUC(0-t): 10200 ng·h/mL
  Cmax: 503 ng/mL
  Tmax: 7.33 h
  bioavailability: 40.7%
[1]; BALB/c, mouse, Iv. 1.0 mg/kg
  half-life: 46.3 h
[1]; BALB/c, mouse, Po. 6.25 mg/kg
  half-life: 43.9 h
[1]; Iv. 1.0 mg/kg
  At 96 h lung/plasma: lung: 241
  At 96 h lung/plasma: plasma: 12.4
[1]; Po. 6.25 mg/kg
  At 96 h lung/plasma: lung: 857
  At 96 h lung/plasma: plasma: 25.3
[2]; mouse, in vivo, read-out: LD50 (dose that caused at least 50% of mice to die)
  LD50: > 3000 mg/kg
[2]; no adverse events were found
  tolerability at the administered doses: tolerated
[3]
  MIC: 0.07 µg/mL (≈ 0.13 µM)
[4]; Iv. 1.0 mg/kg
  At 96 h lung/plasma: lung: 235
  At 96 h lung/plasma: plasma: 3.61
  half-life: 25.6 h
[4]; Po. 5.0 mg/kg
  At 96 h lung/plasma: lung: 337
  At 96 h lung/plasma: plasma: 4.74
  half-life: 29.8 h
[4]; rat, in vivo, iv, 1 mg/kg
  AUC(0-inf): 2350 ng·h/mL
  AUC(0-t): 2220 ng·h/mL
  Vd: 9.2 L/kg
  clearance: 8.25 mL/min/kg
[4]; rat, in vivo, po, 5 mg/kg
  AUC(0-inf): 4310 ng·h/mL
  AUC(0-t): 4080 ng·h/mL
  Cmax: 328 ng/mL
  Tmax: 1 h
  bioavailability: 36.7%
[5]
  IC50: > 30 µM
[6]; 10 mg/kg, P < 0.05
  reduction in CFU compared with BDQ at 10 mg/kg: larger reduction in CFU than BDQ
[6]; 20 mg/kg
  activity compared with BDQ at the equivalent dose: no difference from that of BDQ
[6]; daily 20 mg/kg monotherapy, 20 days
  culturable organisms in mouse lungs: all culturable organisms’ clearance
[7]
  MIC: 0.152 µg/mL (≈ 0.283 µM)
[8]; 200 mg/kg oral once daily, 14 days, male and female dogs
  mortality and moribundity: did not result in mortality and moribundity
[8]; [20]
  ECG: HR: Slowing of the heart rate
  ECG: QT interval: Physiologically appropriate lengthening of the QT interval
  ECG: RR/PR interval: Lengthening of the RR interval
  qualitative ECG changes associated with oral administration: no qualitative ECG changes
[8]; dog, in vivo
  effects on blood pressure, heart rate, or qualitative ECG parameters: no adverse effects
[8]; dog, in vivo, po, 200 mg/kg
  cTnI: no significant changes
[9]; in vivo, iv, 0.5 mg/kg
  AUC(0-t): 3610 ng·h/mL
  Vd: 6.04 L/kg
  clearance: 2.04 mL/min/kg
  AUC(0-inf): 4250 ng·h/mL
[9]; in vivo, po, 2 mg/kg
  AUC(0-t): 8500 ng·h/mL
  bioavailability: 58.9%
  AUC(0-inf): 9490 ng·h/mL
  Cmax: 390 ng/mL
[9]; in vivo, po, 2 mg/kg, Tmax
  Tmax: 4.67 h
[9]; in vivo, po, 6 mg/kg
  AUC(0-t): 20200 ng·h/mL
  bioavailability: 46.6%
  AUC(0-inf): 22800 ng·h/mL
  Cmax: 1080 ng/mL
[9]; in vivo, po, 6 mg/kg, Tmax
  Tmax: 5.33 h
[9]; in vivo, po, 20 mg/kg
  AUC(0-t): 50400 ng·h/mL
  bioavailability: 34.9%
[9]; in vivo, po, 20 mg/kg, Tmax
  Tmax: 7.67 h
[9]; in vivo, po, 20 mg/kg, time to peak concentration (Tmax)
  Tmax: 4.6 to 7.7 h
[9]; iv, 0.5 mg/kg, Dog, Iv. 0.5 mg/kg, read-out: t1/2 (converted)
  half-life: 56.2 h
[9]; po, 2 mg/kg, Dog, Po. 2.0 mg/kg, read-out: t1/2 (converted)
  half-life: 51.1 h
[9]; po, 6 mg/kg, Dog, Po. 6.0 mg/kg, read-out: t1/2 (converted)
  half-life: 55.6 h
[9]; po, 20 mg/kg, Dog, Po. 20.0 mg/kg, read-out: t1/2 (converted)
  half-life: 57.6 h
[9]; po, 20 mg/kg, beagle dogs, oral, range over doses of 2, 6, or 20 mg/kg, read-out: plasma half-life (t1/2)
  half-life: 51 to 58 h
[10]
  concentration showing bactericidal effects in time-kill test: ≥ 4 × MIC
[11]
  MBCs: 0.313 µg/mL
[12]
  MIC: 0.219 µg/mL (≈ 0.408 µM)
[13]
  MIC: 0.12 µg/mL (≈ 0.223 µM)
[14]
  MBCs: 2.500 µg/mL
[15]; chronic model, 5 mg/kg, 8-week treatment
  reduction of CFU in the lungs compared with 15 mg/kg RFP: superior
[15]; chronic model, 5, 10, and 20 mg/kg orally, 8 weeks
  activity compared with BDQ: slightly lower than BDQ, there was no significant difference in activity
[15]; chronic model, any dose (5, 10, 20 mg/kg)
  lung CFU after 8 weeks of treatment: declined
[16]
  MIC: 0.117 µg/mL (≈ 0.218 µM)
[17]
  MIC: 0.124 µg/mL (≈ 0.231 µM)
